Data taken from patent publication US20240131168A1, “NAPHTHALENE RING-CONTAINING COMPOUND, PHARMACEUTICAL COMPOSITION CONTAINING SAME, AND USE THEREOF” (JIANGSU YAHONG MEDITECH CO., LTD., priority 2021, published 2024).

Key:
MDA-MB-468 = assay: CellTiter-Glo cell proliferation inhibition, MDA-MB-468; format: cell-based; conditions: Homo sapiens, 144 h; MDA-MB-468 (CTG), 6 days, starting concentration 10 μM; read-out: IH % max (maximum inhibition percentage)
TamR-MCF-7 = assay: CellTiter-Glo cell proliferation inhibition, TamR-MCF-7; format: cell-based; conditions: 144 h, TamR-MCF-7 (CTG), 6 days, starting concentration 10 μM; for inhibition at up to 10 µM: read-out: IH % max (maximum inhibition percentage)
Procedure, shortened: (§1)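 MCF-7, TamR-MCF-7, and CRISPR-edited MCF-7 ER D538G or Y537S cells were seeded at 1,000 or 2,000 cells/well in EMEM and cultured 24 h. They were then exposed to a 4-fold, 10-point series (top 10 µM before addition to wells) for 6 days or 72 h at 37 °C. CellTiter-Glo luminescence gave IC50 and maximum % inhibition.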

MCF-7 ER^Y537S = assay: CellTiter-Glo cell proliferation inhibition, MCF-7 ER^Y537S; format: cell-based; conditions: Homo sapiens, MCF7, 144 h; MCF-7 ER^Y537S (CTG), 6 days, starting concentration 10 μM; read-out: IH % max (maximum inhibition percentage)
Procedure, shortened: as §1

MCF-7 = assay: CellTiter-Glo cell proliferation inhibition, MCF-7 (Effect Example 2); format: cell-based; conditions: Homo sapiens, MCF7, 144 h, MCF-7 (CTG), 6 days, starting concentration 10 μM; for inhibition at up to 10 µM: read-out: IH % max (maximum inhibition percentage)
Procedure, shortened: as §1

MDA-MB-231 = assay: CellTiter-Glo cell proliferation inhibition, MDA-MB-231; format: cell-based; conditions: Homo sapiens, 144 h; MDA-MB-231 (CTG), 6 days, starting concentration 10 μM; read-out: IH % max (maximum inhibition percentage)
From the text: 1. Cell line • (1) Breast cancer cell lines and their culture media: • MCF-7 (ATCC; Cat. No.: HTB-22), a Luminal A breast cancer cell; • TamR-MCF-7 (ATCC; Cat. No.: CRL-3435), a breast cancer cell; • MCF-7 ER^D538G: a Luminal A breast cancer cell obtained by constructing MCF-7 (ATCC; Cat. No.: HTB-22) using CRISPR-Cas9 gene editing technology; • MCF-7 ER^Y537S: a Luminal A breast cancer cell obtained by constructing MCF-7 (ATCC; Cat. No.: HTB-22) using CRISPR-Cas9 gene editing technology; • MDA-MB-231: (manufacturer: Nanjing CoBioer Biosciences Co., Ltd.), a triple-negative breast cancer cell; • MDA-MB-468: (manufacturer: Nanjing CoBioer Biosciences Co., Ltd.), a triple-negative breast cancer cell.
Herein, the culture medium of MCF-7, TamR-MCF-7, MCF-7 ER^D538G, and MCF-7 ER^Y537S was EMEM; • the culture medium of MDA-MB-231 and MDA-MB-468 was DMEM.
2. Reagents • Culture medium EMEM (Gibco, 1964507) • Culture medium DMEM (Gibco, 12430-054) • Fetal bovine serum (Gibco, 10091148) • Penicillin-streptomycin double antibody (Gibco, S110JV) • DPBS (Gibco, 14190-144) • CellTiter-Glo® assay kit (Promega, G7573) • Trypsin (0.25%) (Gibco, 25200-056) • DMSO (Sigma, D2650)
3. Instruments • Biosafety cabinet (AIRTECH, BSC-1300A II) • Automated cell counter (Life Technologies, countess II) • Multifunctional microplate reader (Biotek, H1FM) • Orbital shaker (Hangzhou Allsheng Instruments Co., Ltd., OS-100) • XLFIT 5.3 (Inforstack Shanghai Co., Ltd.)
For this test method, the following experiments were performed in a biosafety cabinet, with the specific steps as follows: • (1) Cells were inoculated in a 96-well plate. One day later, the previous culture medium was poured off, 5 mL of DPBS was added to wash the cells, and then DPBS was pipetted and discarded. An appropriate amount of trypsin was then added. The plate was digested in a 37° C., 5% CO2 cell incubator for about 2 to 5 minutes and then taken out. Anew corresponding culture medium was added, and pipetted up and down to resuspend the cells evenly. The cells were then counted using an automated cell counter. • (2) Each cell was inoculated in columns 1 to 11 of a 96-well plate (Corning, Cat. No.: 3610) at a density of 1,000 or 2,000 cells per well in 100 μL of culture medium, and 100 μL of the corresponding culture medium without cells was added to the wells in column 12. The plate was then placed in a 37° C., 5% CO2 incubator for 24 hours. • (3) The compound of the present disclosure and the control drug fulvestrant (Selleck; Cat. No.: S1191) were then 4-fold serially diluted to 10 dose points starting at 10 μM. 10 μL of the serially diluted compound was pipetted and added to 100 μL of cells in columns 1 to 10, and 10 μL of the corresponding culture medium containing 0.33 v % DMSO was added to both columns 11 and 12. The plate was incubated in a 37° C., 5% CO2 incubator for 6 days or 72 hours (Note: column 11 was used as a MAX well with cells but without compound; column 12 was used as a MIN well without cells […]). • (4) The cell viability detection reagent in the CellTiter-Glo® assay kit was then added to the 96-well plate at 50 μL per well according to the instructions, and shaken on an orbital shaker in the dark for 5 to 10 minutes. The cell viability was then measured using a multifunctional microplate reader. Finally, the inhibition of cell proliferation by the compound of the present disclosure was plotted by XLFIT software, and the IC50 value (half inhibitory concentration) and the IH % max (maximum inhibition percentage) of the compound of the present disclosure were calculated.
Compounds D64 to D69 were tested for MDA-MB-231 (CTG) and MDA-MB-468 (CTG) with an incubation time of 72 hours in the incubator.

MCF-7 ER^D538G = assay: CellTiter-Glo cell proliferation inhibition, MCF-7 ER^D538G; format: cell-based; conditions: Homo sapiens, MCF7, 144 h, MCF-7 ER^D538G (CTG), 6 days, starting concentration 10 μM; for inhibition at up to 10 µM: read-out: IH % max (maximum inhibition percentage)
Procedure, shortened: as §1

estrogen receptor = target: T1, estrogen receptor (Homo sapiens, UniProt P03372); conditions: background section; cited from earlier work
T1 sequence (P03372 1-595): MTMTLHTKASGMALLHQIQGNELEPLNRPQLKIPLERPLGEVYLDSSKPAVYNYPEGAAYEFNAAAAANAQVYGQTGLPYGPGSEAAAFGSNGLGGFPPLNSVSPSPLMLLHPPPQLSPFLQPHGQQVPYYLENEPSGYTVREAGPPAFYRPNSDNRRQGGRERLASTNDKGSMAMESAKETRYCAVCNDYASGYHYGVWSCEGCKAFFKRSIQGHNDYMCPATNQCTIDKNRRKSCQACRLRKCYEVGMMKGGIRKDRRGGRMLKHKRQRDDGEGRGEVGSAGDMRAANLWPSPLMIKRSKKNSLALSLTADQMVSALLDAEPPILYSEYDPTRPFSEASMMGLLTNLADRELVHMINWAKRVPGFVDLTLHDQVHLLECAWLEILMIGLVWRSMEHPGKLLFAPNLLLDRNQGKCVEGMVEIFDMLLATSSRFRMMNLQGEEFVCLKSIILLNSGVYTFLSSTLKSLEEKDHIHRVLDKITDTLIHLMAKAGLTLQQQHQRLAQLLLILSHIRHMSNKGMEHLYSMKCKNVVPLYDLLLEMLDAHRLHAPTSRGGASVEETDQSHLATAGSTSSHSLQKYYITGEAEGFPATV

Row | SMILES | IC50 (MCF-7 ER^D538G) | IC50 (MCF-7) | IC50 (TamR-MCF-7) | inhibition at up to 10 µM (MDA-MB-468) | inhibition at up to 10 µM (TamR-MCF-7) | inhibition at up to 10 µM (MCF-7 ER^Y537S) | inhibition at up to 10 µM (MCF-7) | inhibition at up to 10 µM (MDA-MB-231) | inhibition at up to 10 µM (MCF-7 ER^D538G) | maximum protein degradation rate (estrogen receptor)
1 | CN(CCOCCN1CCN(c2ccc3c(c2)CN(C2CCC(=O)NC2=O)C3=O)CC1)CCOc1ccc(Oc2c(-c3ccc(S(C)(=O)=O)cc3)ccc3cc(O)ccc23)cc1 (stereo not drawn) [Compound D10, 3-(5-(4-(2-(2-((2-(4-((6-hydroxy-2-(4-(methylsulfonyl)phenyl)naphthalen-1-yl)oxy)phenoxy)ethyl)methylamino)ethoxy)ethyl)piperazin-1-yl)-1-oxoisoindolin-2-yl)piperidine-2,6-dione] |  |  |  | 68% | 36% | 54% | 40% | 38% | 67% | 
2 | CCN(CCOCCOc1ccc2c(c1)C(=O)N(C1CCC(=O)NC1=O)C2=O)CCOc1ccc(Oc2c(-c3ccc(S(C)(=O)=O)cc3)ccc3cc(O)ccc23)cc1 (stereo not drawn) [Compound D23, 2-(2,6-dioxopiperidin-3-yl)-5-(2-(2-(ethyl(2-(4-((6-hydroxy-2-(4-(methylsulfonyl)phenyl)naphthalen-1-yl)oxy)phenoxy)ethyl)amino)ethoxy)ethoxy)isoindoline-1,3-dione] | 230 nM |  |  | 79% | 64% | 96% | 73% | 100% | 94% | 
3 | CCN(CCOc1ccc(Oc2c(-c3ccc(S(C)(=O)=O)cc3)ccc3cc(O)ccc23)cc1)C(=O)c1ccc(CCC2CCN(C3CCN(c4cccc5c4C(=O)N(C4CCC(=O)NC4=O)C5=O)CC3)CC2)cc1 (stereo not drawn) [Compound D33, 4-(2-(1′-(2-(2,6-dioxopiperidin-3-yl)-1,3-dioxoisoindolin-4-yl)-[1,4′-bipiperidin]-4-yl)ethyl)-N-ethyl-N-(2-(4-((6-hydroxy-2-(4-(methylsulfonyl)phenyl)naphthalen-1-yl)oxy)phenoxy)ethyl)benzamide] | 288 nM |  |  | 94% | 45% | 76% | 45% | 57% | 92% | 
4 | C[C@]12CC[C@@H]3c4ccc(O)cc4C[C@@H](CCCCCCCCC[S+]([O-])CCCC(F)(F)C(F)(F)F)[C@H]3[C@@H]1CC[C@@H]2O (stereo partly drawn) [Fulvestrant, fulvestrant, reference compound] |  | 1.6 nM | 115 nM | 39.4% | 71.8% |  | 80.7% |  |  | about 61%

Second part, led by results:

Row | IC50 (MCF-7 ER^D538G) | IC50 (MCF-7) | IC50 (TamR-MCF-7) | SMILES | inhibition at up to 10 µM (MDA-MB-468) | inhibition at up to 10 µM (TamR-MCF-7) | inhibition at up to 10 µM (MCF-7 ER^Y537S) | inhibition at up to 10 µM (MCF-7) | inhibition at up to 10 µM (MDA-MB-231) | inhibition at up to 10 µM (MCF-7 ER^D538G) | maximum protein degradation rate (estrogen receptor)
5 | 448 nM |  |  | CCN(CCOCCOCCOc1ccc2c(c1)C(=O)N(C1CCC(=O)NC1=O)C2=O)CCOc1ccc(Oc2c(-c3ccc(S(C)(=O)=O)cc3)ccc3cc(O)ccc23)cc1 (stereo not drawn) [Compound D24, 2-(2,6-dioxopiperidin-3-yl)-5-(2-(2-(2-(ethyl(2-(4-((6-hydroxy-2-(4-(methylsulfonyl)phenyl)naphthalen-1-yl)oxy)phenoxy)ethyl)amino)ethoxy)ethoxy)ethoxy)isoindoline-1,3-dione] | 62% | 60% | 94% | 74% | 100% | 93% | 
6 | 202 nM |  |  | CCN(CCOCCOCCN1CCN(c2ccc3c(c2)C(=O)N(C2CCC(=O)NC2=O)C3)CC1)CCOc1ccc(Oc2c(-c3ccc(S(C)(=O)=O)cc3)ccc3cc(O)ccc23)cc1 (stereo not drawn) [Compound D49] | 99% | 42% | 86% | 42% | 97% | 96% | 
7 | 977 nM | 954 nM |  | CS(=O)(=O)c1ccc(-c2ccc3cc(O)ccc3c2Oc2ccc(OCCNCCCCCNc3cccc4c3C(=O)N(C3CCC(=O)NC3=O)C4=O)cc2)cc1 (stereo not drawn) [Compound D60, 2-(2,6-dioxopiperidin-3-yl)-4-((5-((2-(4-((6-hydroxy-2-(4-(methylsulfonyl)phenyl)naphthalen-1-yl)oxy)phenoxy)ethyl)amino)pentyl)amino)isoindoline-1,3-dione] | 51% | 50% | 92% | 82% | 96% | 96% | 
